From patent US20250011878A1, “METHOD TO DETECT RNA BIOMARKERS” (ITALFARMACO SPA, priority 2021, published 2025)

Legend:
[1] = test system: CT26 tumor cells; test: CT26 tumor volume in BALB/c mice, responders and non-responders; format: in vivo; details: CT26 s.c. in BALB/c mice, treatment day 10 to day 20; three groups of animals with different tumor reduction
Method: (§1) Adult BALB/c mice were injected s.c. with 1×10^6 CT26 tumor cells (diluted to 100 μl with phosphate buffered saline) and treated with anti-PD1 or ITF3756 when the tumor volume reached 75-100 mm^3, to explore the modulation of genes in the tumor microenvironment by RNAseq. Since ITF3756 acts on the PD-1/PD-L1 axis, this approach allows the identification of genes specific and common to both treatments. The overall schedule is described in Table 9.
Responders and non-responders were selected based on tumor volume at day 20. The volume of the tumor at the beginning of the treatments (day 10) was on average about 75 mm^3. Based on this value of tumor volume, we classified the animals according to the following criteria: • Animals with tumor volume lower or equal to 75 mm^3 were considered RESPONDERS (R) • Animals with tumor volume greater than 75 mm^3 were considered NON RESPONDERS (NR)

[2] = biological target: T1, HDAC6 (Mus musculus, UniProt Q9Z2V5); test: Target engagement: tubulin acetylation in spleen of CT26 tumor bearing mice (western blot); format: in vivo, BALB/c mice; details: 50 mpk os, 8 administrations (Table 9)
T1 construct: Spleens were collected and total splenocytes suspension was prepared; from tissue; host or cells: spleen (splenocytes) of BALB/c mice bearing CT26 tumors
T1 sequence (Q9Z2V5 1-1149): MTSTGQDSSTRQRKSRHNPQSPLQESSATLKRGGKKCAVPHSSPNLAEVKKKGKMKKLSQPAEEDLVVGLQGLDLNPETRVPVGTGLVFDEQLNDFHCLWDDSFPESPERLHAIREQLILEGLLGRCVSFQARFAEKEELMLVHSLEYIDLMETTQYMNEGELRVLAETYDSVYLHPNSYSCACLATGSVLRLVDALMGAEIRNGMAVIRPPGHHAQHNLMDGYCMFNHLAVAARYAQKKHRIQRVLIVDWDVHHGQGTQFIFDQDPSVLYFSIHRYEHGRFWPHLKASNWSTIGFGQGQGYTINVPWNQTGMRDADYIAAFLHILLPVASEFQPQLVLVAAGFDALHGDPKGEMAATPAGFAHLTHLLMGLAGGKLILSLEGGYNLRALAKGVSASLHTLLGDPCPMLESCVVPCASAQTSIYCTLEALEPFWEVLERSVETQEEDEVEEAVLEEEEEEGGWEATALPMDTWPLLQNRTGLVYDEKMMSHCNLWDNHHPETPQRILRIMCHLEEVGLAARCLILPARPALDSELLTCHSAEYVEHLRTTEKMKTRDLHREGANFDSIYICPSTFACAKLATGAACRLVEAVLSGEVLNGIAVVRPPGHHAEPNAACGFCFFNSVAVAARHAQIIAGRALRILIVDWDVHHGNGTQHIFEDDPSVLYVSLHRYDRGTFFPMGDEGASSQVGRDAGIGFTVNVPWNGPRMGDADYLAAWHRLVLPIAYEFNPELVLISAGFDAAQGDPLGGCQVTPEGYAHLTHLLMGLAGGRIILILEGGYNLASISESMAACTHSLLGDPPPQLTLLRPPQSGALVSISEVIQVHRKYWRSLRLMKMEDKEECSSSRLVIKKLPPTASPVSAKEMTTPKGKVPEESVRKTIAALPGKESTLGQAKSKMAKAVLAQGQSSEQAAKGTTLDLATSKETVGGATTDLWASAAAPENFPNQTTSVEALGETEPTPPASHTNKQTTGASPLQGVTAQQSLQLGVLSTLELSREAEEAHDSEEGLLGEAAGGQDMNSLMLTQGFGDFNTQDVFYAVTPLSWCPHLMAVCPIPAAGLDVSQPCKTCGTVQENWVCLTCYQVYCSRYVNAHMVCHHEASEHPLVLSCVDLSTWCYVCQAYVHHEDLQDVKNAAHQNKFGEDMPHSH
Method: as §1
Whole cell extracts were obtained by lysing mice spleens with Triton Buffer (50Mm Tris-HCl ph 7.5, 250 mM NaCl, 50 mM NaF, 1 mM EDTA pH 8, 0.1% Triton), supplemented with protease and phosphatase inhibitors (Roche, Germany). Proteins were separated by SDS-PAGE, transferred onto PVDF membranes and blocked with PBS-T (Phosphate-buffared saline and 0.1% Tween-20 containing 5% non-fat dry milk for one hour at room temperature (RT). The incubation with primary antibodies was performed for two hours at RT, followed by incubation with the appropriate horseradish peroxidase-conjugated secondary antibody. Detection was performed with ECL Western Blot Reagent (Amerscham). The antibodies used were: mouse anti acetylated tubulin (Sigma, T6793), mouse anti tubulin (Sigma, T6074), goat anti-mouse IgG (H+L)-HRP conjugate (Bio-Rad, 1706516).
Densitometry analysis was performed using ImageJ software. […]
To ascertain HDAC6 inhibition by ITF3756, the spleen of the animals were collected at all sacrifice time points (1 hour, 4 hours, 18 hours and 24 hours). Tubulin acetylation and total tubulin were detected by western blotting.
Tumor bearing animals were sacrificed at various time points after the last administration. Spleens were collected and total splenocytes suspension was prepared. Pelleted cells were lysed to obtain a total protein extract […] by electrophoresis. Tubulin and acetyl-tubulin were detected after western blotting using specific antibodies.

O=C(NO)c1ccc(Cn2nnnc2-c2cccs2)cc1 [ITF3756, N-hydroxy-4-((5-(thiophen-2-yl)-1 H-tetrazol-1-yl)methyl)benzamide]
tumor response (tumor volume) [1]: heterogeneous response | tubulin acetylation in spleen ([2]; 1 hour after the last treatment): strong increase | tubulin acetylation in spleen ([2]; 4 hours after the last treatment): maintained until 4 hours | tubulin acetylation in spleen ([2]; 18 hours after the last treatment): still high and consistent | tubulin acetylation in spleen ([2]; 24 hours after the last treatment): still detectable, but not in all the animals analysed
